Test results as given in US8895602B1, “6-pyrazolylamido-3-substituted azabicyclo[3.1.0]hexane compounds as calcium channel inhibitors” (Korea Institute of Science and Technology, priority 2013, dated 2014).

Tests used:
[1] = system: human prostate carcinoma (LNCaP) cells; assay: Anticancer screening, SRB assay, LNCaP; type: cell-based; conditions: 48 hours incubation, concentration not given
Description: (§1) Anticancer Effect Screening Test
(§2) All the cancer cells are human-derived tumor cells and were acquired from the Korean Cell Line Bank.
(§3) 2) Measurement of Anticancer Activity
(§4) After incubation in a CO2 incubator for 24 hours, the culture medium was removed and 100 μL of the test compound which was diluted 4-fold was added. After incubation for 48 hours, the cells were fixed by adding 100 μL of formalin solution. Then, the cells were washed 5 times with distilled water and dried at room temperature. After adding 100 μL of 0.4% SRB solution and keeping at room temperature for 30 minutes, the cells were washed 5 times with 1% acetic acid and dried at room temperature.
(§5) To evaluate the anticancer activity of the test compound against the cancer cells, the GI50 value was calculated according to Equation 1 or 2. Anticancer activity (%)=[…] Equation 1
(§6) In Equation 1, T0 represents the number of cells before adding the test compound and T2 represents the number of cells after adding the test compound and incubating for 48 hours. Anticancer activity (%)=[…] Equation 2
(§7) The inhibition of cancer cell growth by the test compound (% inhibition) was determined by data regression using the Lotus program from the values calculated according to Equation 1 and the IC50 value was calculated from the % inhibition.

[2] = system: human fibroblastoma (HT-1080) cells; assay: Anticancer screening, SRB assay, HT-1080; type: cell-based; conditions: HT1080, 48 hours incubation, concentration not given
Description: as §1, §2, §3, §4, §5, §6, §7

[3] = system: human glioma (U87-MG) cells; assay: Anticancer screening, SRB assay, U87-MG; type: cell-based; conditions: 48 hours incubation, concentration not given
Description: as §1, §2, §3, §4, §5, §6, §7

[4] = system: human esophageal carcinoma (KYSE410) cells; assay: Anticancer screening, SRB assay, KYSE410; type: cell-based; conditions: KYSE410, 48 hours incubation, concentration not given
Description: as §1, §2, §3, §4, §5, §6, §7

[5] = spinal nerve ligation model; cited from earlier work
[6] = system: human breast cancer (MCF-7) cells; assay: Anticancer screening, SRB assay, MCF-7; type: cell-based; conditions: MCF-7, 48 hours incubation, concentration not given
Description: as §1, §2, §3, §4, §5, §6, §7

[7] = system: human liver carcinoma (HepG2) cells; assay: Anticancer screening, SRB assay, HepG2; type: cell-based; conditions: HepG2, 48 hours incubation, concentration not given
Description: as §1, §2, §3, §4, §5, §6, §7

[8] = system: human lung carcinoma (A-549) cells; assay: Anticancer screening, SRB assay, A-549; type: cell-based; conditions: A 549, 48 hours incubation, concentration not given
Description: as §1, §2, §3, §4, §5, §6, §7

[9] = biological target: T1, α1G T-type calcium channel (Homo sapiens, UniProt O43497); assay: Antagonistic activity against T-type calcium channel (FDSS6000 / whole-cell patch clamp in HEK293 cells), α1G; type: cell-based
T1 construct: host or cells: HEK293
Description: (§8) Test of Antagonistic Activity Against T-Type Calcium Channel
Then, as secondary screening, the effective inhibitory concentration IC50 for human HEK293 cells was obtained by measuring the potential of Ca^2+.
1) Measurement of T-Type Calcium Channel Activity Using FDSS6000
Subsequently, 10 minutes prior to the FDSS6000 measurement, the cells were washed with HEPES buffer containing 10 mM CaCl2 once and the final volume was adjusted to 81 μL. Separately from the 96-well plate with the cells, two 96-well drug plates were prepared, one containing KCl (final concentration 75 mM) for activating the T-type calcium channel and the other containing the blocking agent (test compound). […] For the FDSS6000 measurement, after baseline recording for 20 seconds, the cells were pretreated with the test compound for 75 seconds and the change in intracellular calcium concentration induced by KCl was measured. The % inhibition by the test compound was calculated as integrated values of the 340/380 ratio relative to the untreated control group. […]
For calcium imaging, the cells were selectively exposed to light of excitation wavelengths (340 nm and 380 nm) with four xenon lamps installed in the FDSS6000 device using a computer-controlled filter wheel. The emitted fluorescence light that passed through a 515 nm long-pass filter was passed through a freezing CCD camera mounted in the device. […]

[10] = biological target: α1H T-type calcium channel (Homo sapiens, UniProt O95180); assay: Antagonistic activity against T-type calcium channel, α1H; type: cell-based
Sequence of α1H T-type calcium channel (O95180 whole entry): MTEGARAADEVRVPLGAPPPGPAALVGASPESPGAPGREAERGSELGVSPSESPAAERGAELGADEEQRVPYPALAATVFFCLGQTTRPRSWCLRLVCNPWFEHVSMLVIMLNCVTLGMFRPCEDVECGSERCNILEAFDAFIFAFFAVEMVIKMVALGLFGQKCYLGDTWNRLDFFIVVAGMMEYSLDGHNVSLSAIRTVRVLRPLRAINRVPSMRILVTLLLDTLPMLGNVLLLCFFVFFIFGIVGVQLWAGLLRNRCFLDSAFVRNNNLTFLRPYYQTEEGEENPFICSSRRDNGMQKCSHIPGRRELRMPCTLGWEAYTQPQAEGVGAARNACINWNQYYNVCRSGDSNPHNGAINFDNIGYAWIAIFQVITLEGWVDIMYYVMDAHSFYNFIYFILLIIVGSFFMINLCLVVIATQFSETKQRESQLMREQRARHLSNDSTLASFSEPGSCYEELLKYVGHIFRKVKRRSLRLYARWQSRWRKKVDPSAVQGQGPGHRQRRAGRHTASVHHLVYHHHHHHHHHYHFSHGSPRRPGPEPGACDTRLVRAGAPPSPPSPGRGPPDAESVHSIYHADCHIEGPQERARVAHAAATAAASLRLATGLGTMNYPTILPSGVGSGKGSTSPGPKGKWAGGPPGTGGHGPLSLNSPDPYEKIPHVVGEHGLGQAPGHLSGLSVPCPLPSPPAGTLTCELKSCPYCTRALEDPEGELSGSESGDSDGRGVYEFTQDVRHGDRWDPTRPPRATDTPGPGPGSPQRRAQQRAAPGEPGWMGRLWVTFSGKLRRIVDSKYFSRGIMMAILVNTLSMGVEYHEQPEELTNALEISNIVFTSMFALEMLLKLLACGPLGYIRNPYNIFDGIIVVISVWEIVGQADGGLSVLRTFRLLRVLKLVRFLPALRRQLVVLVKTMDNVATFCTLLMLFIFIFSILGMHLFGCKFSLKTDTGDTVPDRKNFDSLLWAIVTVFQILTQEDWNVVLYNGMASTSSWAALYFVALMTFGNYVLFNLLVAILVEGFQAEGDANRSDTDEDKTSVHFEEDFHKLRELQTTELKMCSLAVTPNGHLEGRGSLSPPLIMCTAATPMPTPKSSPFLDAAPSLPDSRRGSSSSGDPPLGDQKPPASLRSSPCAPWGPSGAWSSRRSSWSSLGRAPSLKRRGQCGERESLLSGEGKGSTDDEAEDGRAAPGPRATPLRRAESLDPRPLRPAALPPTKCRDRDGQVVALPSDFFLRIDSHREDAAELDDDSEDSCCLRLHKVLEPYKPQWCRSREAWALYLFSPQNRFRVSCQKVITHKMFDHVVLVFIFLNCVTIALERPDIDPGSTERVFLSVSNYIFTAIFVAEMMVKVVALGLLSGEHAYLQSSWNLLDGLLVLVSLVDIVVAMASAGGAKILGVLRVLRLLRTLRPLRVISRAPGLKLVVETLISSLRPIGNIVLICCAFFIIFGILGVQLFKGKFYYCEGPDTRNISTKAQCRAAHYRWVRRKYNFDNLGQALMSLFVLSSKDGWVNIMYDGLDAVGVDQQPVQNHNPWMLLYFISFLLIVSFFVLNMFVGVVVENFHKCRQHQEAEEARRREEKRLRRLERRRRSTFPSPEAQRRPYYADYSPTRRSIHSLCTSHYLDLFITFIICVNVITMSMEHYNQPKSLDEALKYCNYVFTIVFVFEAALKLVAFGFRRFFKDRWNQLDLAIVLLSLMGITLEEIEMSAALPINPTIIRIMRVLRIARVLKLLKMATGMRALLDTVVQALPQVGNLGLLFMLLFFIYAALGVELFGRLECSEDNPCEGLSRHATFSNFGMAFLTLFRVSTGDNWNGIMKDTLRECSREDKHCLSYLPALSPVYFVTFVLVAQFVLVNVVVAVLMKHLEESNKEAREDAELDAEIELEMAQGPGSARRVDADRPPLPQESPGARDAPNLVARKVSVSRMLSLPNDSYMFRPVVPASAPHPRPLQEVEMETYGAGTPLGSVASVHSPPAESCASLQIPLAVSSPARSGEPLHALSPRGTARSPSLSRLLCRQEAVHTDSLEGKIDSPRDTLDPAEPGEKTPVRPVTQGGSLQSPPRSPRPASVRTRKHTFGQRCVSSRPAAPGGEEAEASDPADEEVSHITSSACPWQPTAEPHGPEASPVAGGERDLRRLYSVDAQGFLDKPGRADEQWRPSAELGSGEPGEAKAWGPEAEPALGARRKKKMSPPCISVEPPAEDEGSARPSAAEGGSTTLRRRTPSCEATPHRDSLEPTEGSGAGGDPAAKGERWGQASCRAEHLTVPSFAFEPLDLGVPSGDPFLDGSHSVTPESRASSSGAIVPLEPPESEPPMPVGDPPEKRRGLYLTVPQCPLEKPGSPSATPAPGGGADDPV
Description: as §8
2) Measurement of T-Type Calcium Channel Activity in HEK293 Cells by Whole-Cell Patch Clamp Electrophysiology
The culture medium was replaced with a fresh one every 3-4 days and the cells were subcultured every week. […] The T-type calcium channel current at single cell level was measured by whole-cell patch clamp electrophysiology using an EPC-9 amplifier (HEKA, Germany). For the T-type calcium channel activity measurement, an extracellular solution (140 mM NaCl, 2 mM CaCl2, 10 mM HEPES, pH 7.4) and an intracellular solution (130 mM KCl, 10 mM HEPES, 11 mM EGTA, 5 mM MgATP, pH 7.4) were used. […] Thereafter, the cell membrane potential was fixed to −100 mV and the inward current evoked by the T-type calcium channel activity was measured every 10 seconds at hypopolarization with −30 mV (50 ms duration). Each compound was dissolved in 100% dimethyl sulfoxide (DMSO) to make a 10 mM stock solution. […] More specifically, the cells were treated with each compound together with the extracellular solution for 30-60 seconds and the % inhibition was determined by calculating the inhibition of peak current induced by the compound.

T1 sequence (O43497 whole entry): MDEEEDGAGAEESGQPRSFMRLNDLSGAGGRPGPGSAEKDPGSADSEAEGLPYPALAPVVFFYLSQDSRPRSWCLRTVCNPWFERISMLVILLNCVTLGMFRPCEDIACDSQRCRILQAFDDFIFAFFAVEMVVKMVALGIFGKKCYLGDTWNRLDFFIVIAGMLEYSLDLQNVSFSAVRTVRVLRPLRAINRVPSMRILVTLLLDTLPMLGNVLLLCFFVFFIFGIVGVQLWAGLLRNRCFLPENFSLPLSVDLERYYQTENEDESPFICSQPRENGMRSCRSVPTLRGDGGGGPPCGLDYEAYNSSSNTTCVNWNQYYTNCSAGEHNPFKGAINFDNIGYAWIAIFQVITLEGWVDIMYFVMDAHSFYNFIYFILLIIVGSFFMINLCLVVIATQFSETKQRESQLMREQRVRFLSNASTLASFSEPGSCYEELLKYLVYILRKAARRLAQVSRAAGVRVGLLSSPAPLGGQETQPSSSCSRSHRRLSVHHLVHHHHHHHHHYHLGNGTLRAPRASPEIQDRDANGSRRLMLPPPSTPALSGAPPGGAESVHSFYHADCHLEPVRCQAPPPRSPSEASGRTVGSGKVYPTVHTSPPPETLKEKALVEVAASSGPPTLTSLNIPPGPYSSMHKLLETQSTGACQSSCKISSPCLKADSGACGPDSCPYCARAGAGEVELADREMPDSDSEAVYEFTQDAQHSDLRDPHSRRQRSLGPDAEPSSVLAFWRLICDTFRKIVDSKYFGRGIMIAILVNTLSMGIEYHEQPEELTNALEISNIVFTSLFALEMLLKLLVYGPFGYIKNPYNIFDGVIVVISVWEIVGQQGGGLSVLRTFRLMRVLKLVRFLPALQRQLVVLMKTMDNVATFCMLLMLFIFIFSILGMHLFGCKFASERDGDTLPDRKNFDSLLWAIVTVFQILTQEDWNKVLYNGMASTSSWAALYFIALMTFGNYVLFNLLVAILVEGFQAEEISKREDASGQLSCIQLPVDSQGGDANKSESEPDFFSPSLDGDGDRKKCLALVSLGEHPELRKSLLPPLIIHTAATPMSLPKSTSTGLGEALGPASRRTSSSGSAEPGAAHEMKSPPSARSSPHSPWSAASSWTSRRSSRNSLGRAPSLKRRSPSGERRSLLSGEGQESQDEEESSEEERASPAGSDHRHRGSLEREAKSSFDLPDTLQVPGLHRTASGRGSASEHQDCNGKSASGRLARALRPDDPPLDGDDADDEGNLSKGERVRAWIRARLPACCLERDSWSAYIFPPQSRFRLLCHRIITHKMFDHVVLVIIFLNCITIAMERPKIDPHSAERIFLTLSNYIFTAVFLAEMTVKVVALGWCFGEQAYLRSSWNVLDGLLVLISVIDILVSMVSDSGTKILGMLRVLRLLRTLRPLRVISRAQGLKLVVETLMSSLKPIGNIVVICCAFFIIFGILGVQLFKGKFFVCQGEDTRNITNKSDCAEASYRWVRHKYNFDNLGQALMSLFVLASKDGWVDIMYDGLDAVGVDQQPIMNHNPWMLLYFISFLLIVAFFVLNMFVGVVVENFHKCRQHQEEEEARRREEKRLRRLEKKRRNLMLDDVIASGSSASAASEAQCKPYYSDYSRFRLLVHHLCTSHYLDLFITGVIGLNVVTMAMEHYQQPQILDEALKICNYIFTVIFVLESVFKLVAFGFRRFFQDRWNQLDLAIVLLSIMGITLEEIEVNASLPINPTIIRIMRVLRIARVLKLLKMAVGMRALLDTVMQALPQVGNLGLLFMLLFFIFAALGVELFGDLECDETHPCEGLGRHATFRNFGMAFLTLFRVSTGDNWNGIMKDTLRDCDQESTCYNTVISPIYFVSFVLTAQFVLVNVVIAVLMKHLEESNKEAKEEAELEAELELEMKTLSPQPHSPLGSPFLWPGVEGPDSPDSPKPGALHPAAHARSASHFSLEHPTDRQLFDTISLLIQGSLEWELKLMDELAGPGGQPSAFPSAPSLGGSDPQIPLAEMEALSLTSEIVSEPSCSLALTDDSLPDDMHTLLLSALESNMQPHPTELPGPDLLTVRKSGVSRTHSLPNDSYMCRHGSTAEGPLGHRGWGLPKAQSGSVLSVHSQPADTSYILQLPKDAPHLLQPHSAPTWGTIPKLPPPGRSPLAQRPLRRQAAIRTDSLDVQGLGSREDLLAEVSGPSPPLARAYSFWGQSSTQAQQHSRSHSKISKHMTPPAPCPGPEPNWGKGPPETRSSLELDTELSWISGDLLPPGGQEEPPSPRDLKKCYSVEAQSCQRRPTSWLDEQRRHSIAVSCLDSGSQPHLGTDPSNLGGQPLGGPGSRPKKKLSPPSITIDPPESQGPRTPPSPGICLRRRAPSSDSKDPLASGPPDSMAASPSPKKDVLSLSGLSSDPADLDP

SMILES	% inhibition for cancer cells LNCaP [1] [%]	% inhibition for cancer cells HT1080 [2] [%]	% inhibition for cancer cells U87-MG [3] [%]	% inhibition for cancer cells KYSE410 [4] [%]	effect on mechanically and thermally induced pain [5]	% inhibition for cancer cells MCF-7 [6] [%]	% inhibition for cancer cells HepG2 [7] [%]	% inhibition for cancer cells A 549 [8] [%]	inhibition at 10 µM [9] [%]	inhibition at 10 µM [10] [%]
C#Cc1cccc(Nc2ncnc3cc(OCCOC)c(OCCOC)cc23)c1 [Tarceva, reference compound]	47.12	83.07	55.96	36.30						
CCC1(C)CC(=O)NC1=O (centres unmarked) [ethosuximide]					inhibit mechanically and thermally induced pain in a dose-dependent manner					
COCC(=O)O[C@]1(CCN(C)CCCc2nc3ccccc3[nH]2)CCc2cc(F)ccc2[C@@H]1C(C)C [mibefradil]					inhibit mechanically and thermally induced pain in a dose-dependent manner					
CC(C)Cc1cc(CNC(=O)C2C3CN(CCC(C)(C)C)CC32)nn1-c1ccccc1 (centres unmarked) [Compound 1, 3-[3-(3,3-Dimethylbutyl)-3-azabicyclo[3.1.0]hexane-6-carboxamido]methyl-5-isobutyl-1-phenyl-1H-pyrazole]	34.74	62.86	48.10	62.50		94.86	87.91	94.52		
CC(C)Cc1cc(CNC(=O)C2C3CN(Cc4ccccc4)CC32)nn1-c1ccccc1 (centres unmarked) [Compound 2, 3-(3-Benzyl-3-azabicyclo[3.1.0]hexane-6-carboxamido)methyl-5-isobutyl-1-phenyl-1H-pyrazole]	84.90	87.79	86.45	88.75						
CC(C)Cc1cc(CNC(=O)C2C3CN(C(=O)Cc4ccccc4)CC32)nn1-c1ccccc1 (centres unmarked) [Compound 5, 5-Isobutyl-1-phenyl-3-[3-(2-phenylacetyl)-3-azabicyclo[3.1.0]hexane-6-carboxamido]methyl-1H-pyrazole]	62.24	67.10	45.39	48.62		95.24	89.16	94.61	81	89.9
CC(C)Cc1cc(C(=O)NCC2C3CN(CCC(C)(C)C)CC23)nn1-c1ccccc1 (centres unmarked) [Compound 7, 3-{2-[3-(3,3-Dimethylbutyl)-3-azabicyclo[3.1.0]hexane-6-yl]methyl}carbamoyl-5-isobutyl-1-phenyl-1H-pyrazole]	49.98	88.79	89.43	86.46		94.67	98.18	93.14		
Cc1ccc(NC(=O)c2ccc(CN3CCN(C)CC3)cc2)cc1Nc1nccc(-c2cccnc2)n1 [Gleevec, reference compound]	82.56	92.04	86.51	75.92		95.19	90.81	94.17		
CC(C)Cc1cc(CNC(=O)C2C3CN(C(=O)c4ccccc4)CC32)nn1-c1ccccc1 (centres unmarked) [Compound 4, 3-(3-Benzoyl-3-azabicyclo[3.1.0]hexane-6-carboxamido)methyl-5-isobutyl-1-phenyl-1H-pyrazole]	73.31	75.39	56.49	56.84		95.00	89.44	94.52		
CC(C)Cc1cc(CNC(=O)C2C3CN(CCc4ccc(C(F)(F)F)cc4)CC32)nn1-c1ccccc1 (centres unmarked) [Compound 3, 5-Isobutyl-1-phenyl-3-{3-[4-(trifluoromethyl)phenylethyl]-3-azabicyclo[3.1.0]hexane-6-carboxamido}methyl-1H-pyrazole]	92.29	87.64	89.21	92.33		85.44	67.82	75.64	60.5	64.6
